# Experimental data: publication PMC10480161, “Identification of potent and selective N-myristoyltransferase inhibitors of Plasmodium vivax liver stage hypnozoites and schizonts” (Nature Communications, 2023)
# Several values for one entry are separate records, joined by “and”; a condition that tells them apart may be missing. Equal values may be shown once.
# What was measured:
# [1] = HepG2 cytotoxicity assay (Live/Dead staining); conditions: human, HepG2 cells
# Description: (§1) Therefore, we assessed cytotoxicity in the human hepatoma HepG2 cell line. We required a PvNMT to HsNMT SI > 20 for further screening. HepG2 cells were exposed to the compounds at concentrations ranging from 1 to 20 µM for […], and toxicity was assessed via live-dead staining.
# (§2) The viability of the HepG2 cell line following exposure to the compounds was determined by a Live/Dead cell assay kit (Invitrogen). Briefly, cells were added to a 96-well plate at a concentration of 5000 cells per well, excluding the exterior wells. Cells were exposed to the compounds at different concentrations ranging from 1 to 20 µM. Cells were washed every 24 h and supplemented with fresh doses of compounds. At 72 h post-treatment, 1 µM calcein-AM and 1 µM ethidium homodimer were added to the wells and incubated for 10 min at 37 °C. After washing with PBS, the cells were visualized with fluorescent microscopy (Keyence BZ-X700).
# HepG2 cells = test: HepG2 cytotoxicity assay (Live/Dead staining); conditions: for Percentage of live HepG2 cells compared with diluent controls: replicates
# Description: as §1, §2
# P. falciparum NF54 = test: P. falciparum blood stage assay (SYBR Green); format: cell-based, Plasmodium falciparum; conditions: 72 h; for P. falciparum blood-stage development (parasite DNA level fluorescence): untreated = 129; for IC50: ring-stage parasites, relative IC50
# Description: To assess whether any of the PvNMTis developed here could qualify as TCP-1 candidates, we assessed the effect of each compound on blood-stage P. falciparum parasites, as there is currently no well-established in vitro platform for screening P. vivax blood-stage parasites. Synchronized P. falciparum NF54 ring-stage parasites were treated for 72 h with each compound at various concentrations, ranging from 0.625 µM to 10 µM, and parasite DNA replication was measured using a fluorescent DNA binding dye (SYBR Green).
# Sorbitol-synchronized P. falciparum NF54 ring-stage parasites were cultured at a parasitemia of 0.5% and hematocrit of 1.5% in a 96-well microtiter plate. Parasites were treated with each NMT inhibitor compound at 0.625, 1.25, 2.5, 5, or 10 µM for 72 h. Direct lysis of the blood cells to release the parasite DNA was performed by adding 100 μl of LBS buffer containing SYBR green I DNA binding dye to each well. […] ICEstimator regression analysis (http://www.antimalarial-icestimator.net/) was used to obtain relative IC50 values for each compound.
Structure (SMILES),IC50 at 48 h [1] [nM],Percentage of live HepG2 cells compared with diluent controls (HepG2 cells; 1 μM),Percentage of live HepG2 cells compared with diluent controls (HepG2 cells; 2.5 μM),Percentage of live HepG2 cells compared with diluent controls (HepG2 cells; 5 μM),Percentage of live HepG2 cells compared with diluent controls (HepG2 cells; 10 μM),Percentage of live HepG2 cells compared with diluent controls (HepG2 cells; 20 μM),P. falciparum blood-stage development (parasite DNA level fluorescence) (P. falciparum NF54; 0.625 uM),P. falciparum blood-stage development (parasite DNA level fluorescence) (P. falciparum NF54; 1.25 uM),P. falciparum blood-stage development (parasite DNA level fluorescence) (P. falciparum NF54; 2.5 uM),P. falciparum blood-stage development (parasite DNA level fluorescence) (P. falciparum NF54; 5 uM),P. falciparum blood-stage development (parasite DNA level fluorescence) (P. falciparum NF54; 10 uM),"IC50 (P. falciparum NF54; Plasmodium falciparum, NF54) [nM]",IC50 (HepG2 cells) [nM],IC50 (P. falciparum NF54) [nM]
Cc1nn(C)c(C)c1CCOc1cccnc1-c1ccnc(N2CCNCC2)c1 [Compound 12a],> 20000,103.266% and 104.098%,103.396% and 103.37%,103.812% and 94.3274%,93.0541% and 92.1966%,80.685% and 80.1653%,128.4,125.3,116.9,107.7,96.27,810,,
Cc1nn(C)c(C)c1CCOc1cccnc1-c1cccc(N2CCNCC2)c1 [Compound 12b],> 20000,108.074% and 106.671%,106.359% and 104.514%,106.385% and 94.2234%,92.0406% and 101.317%,83.7772% and 84.1151%,118,125.4,119.5,108.7,105.8,470,,
Cc1nn(C)c(C)c1CCOc1ccccc1-c1cccc(N2CCNCC2)c1 [Compound 12d],> 20000,110.153% and 106.021%,105.943% and 99.4465%,100.018% and 98.1213%,93.0281% and 104.514%,84.6088% and 84.0111%,123.5,124.2,118.5,101.9,92.65,800,,
Cc1nn(C)c(C)c1CCOc1cc(F)ccc1-c1cccc(N2CCNCC2)c1 [Compound 12f],> 20000,101.889% and 101.421%,101.941% and 101.11%,95.3928% and 101.733%,95.3148% and 109.373%,87.3113% and 87.6751%,118.6,121.1,112.3,99.32,89.25,610,,
c1cncc(CCOc2cccnc2-c2cccc(N3CCNCC3)c2)c1 [Compound 12g],> 20000,99.9402% and 99.6024%,99.7323% and 98.2512%,98.4851% and 90.6374%,86.6876% and 91.5989%,78.4502% and 78.1644%,115,117.7,114.7,99.89,87.22,600,,
c1cncc(CCOc2ccccc2-c2ccnc(N3CCNCC3)c2)c1 [Compound 12j],> 20000,85.5703% and 82.8678%,74.0847% and 82.3481%,81.2567% and 75.202%,74.4485% and 73.0193%,72.4216% and 71.8759%,106.8,108.9,108.6,101.9,74.22,1250,,
Fc1ccc(-c2ccnc(N3CCNCC3)c2)c(OCCc2cccnc2)c1 [Compound 12l],> 20000,89.7539% and 87.5192%,87.1294% and 87.1034%,86.8955% and 86.7396%,88.7665% and 86.09%,76.2415% and 75.9816%,110.1,110.9,110.4,99.67,86.75,370,,
Cc1n[nH]c(C)c1CCOc1cc(F)ccc1-c1ccnc(N2CCNCC2)c1 [Compound 12q],,99.2906% and 100.564%,95.6786% and 92.2225%,91.8587% and 84.219%,83.4135% and 96.0684%,80.0613% and 94.8991%,114.1,119.1,116.1,98.36,97.95,,> 20000,380
Cc1nn(C)c(C)c1CCOc1ccccc1-c1cccc(OCCN(C)C)c1 [Compound 26b],> 20000,97.4196% and 92.7163%,92.7942% and 91.1312%,90.5335% and 86.8176%,83.2575% and 84.0111%,77.3069% and 77.3588%,123.3,124.2,115.6,103.2,94.32,710,,
Cc1nn(C)c(C)c1CCOc1cc(F)ccc1-c1cccc(OCCN(C)C)c1 [Compound 26c],> 20000,106.359% and 107.918%,107.866% and 101.058%,101.681% and 95.3408%,87.7011% and 97.3677%,83.4394% and 83.5174%,127.1,126.9,117.8,108.1,97.66,820,,
Cc1nn(C)c(C)c1CCOc1ccc2ccccc2c1-c1ccnc(N2CCNCC2)c1 [Compound 30a],,103.422% and 100.304%,101.733% and 94.8731%,94.7431% and 110.101%,109.841% and 95.0809%,87.0514% and 94.4833%,115.4,121.5,115.2,95.74,95.74,,> 20000,440
